Experimental data reported in ChEMBL document CHEMBL1134219, “Gamma-lactone-Functionalized antitumoral acetogenins are the most potent inhibitors of mitochondrial complex I” (Bioorg Med Chem Lett, 2001).

Tests used:
[1] = target: Mitochondrial complex I; NADH oxidoreductase (Bos taurus, UniProt P25708+P52505); test: Inhibition of NADH oxidase activity in sub-mitochondrial particles from bovine heart; assay type: functional
Bos taurus [2] = organism: Bos taurus; test: Inhibition of NADH-ubiquinone oxidoreductase using decylubiquinone (DB) acceptor; assay type: functional
Bos taurus [3] = organism: Bos taurus; test: Relative NADH oxidase activity compared to Laherradurin and 36-dihydroisorolliniastatin-1; assay type: functional
Bos taurus [4] = organism: Bos taurus; test: Relative inhibition of NADH-ubiquinone oxidoreductase (DB) and NADH oxidase activity; assay type: functional
[5] = Potency relative to NADH oxidase activity of Laherradurin
[6] = Potency relative to NADH oxidase activity of and 36-dihydroisorolliniastatin-1

Chain of Mitochondrial complex I; NADH oxidoreductase (P25708 21-464 limits assumed, other chains not shown): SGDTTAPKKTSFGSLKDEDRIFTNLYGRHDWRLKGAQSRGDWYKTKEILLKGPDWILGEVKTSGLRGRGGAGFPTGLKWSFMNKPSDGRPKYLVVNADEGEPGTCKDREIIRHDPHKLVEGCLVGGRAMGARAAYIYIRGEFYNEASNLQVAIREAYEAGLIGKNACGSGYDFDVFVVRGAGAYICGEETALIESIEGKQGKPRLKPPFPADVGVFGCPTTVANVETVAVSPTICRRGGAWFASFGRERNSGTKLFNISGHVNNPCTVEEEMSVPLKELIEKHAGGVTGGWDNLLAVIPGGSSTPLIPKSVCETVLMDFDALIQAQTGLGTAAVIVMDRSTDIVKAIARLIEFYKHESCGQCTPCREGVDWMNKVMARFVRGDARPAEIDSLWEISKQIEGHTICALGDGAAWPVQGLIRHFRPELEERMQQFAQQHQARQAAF

SMILES | IC50 [1] [nM] | IC50 (Bos taurus [2]) [nM] | Relative potency (Bos taurus [3]) | Ratio (Bos taurus [4]) | Relative potency [5] | Relative potency [6]
CCCCCCCCCC[C@@H](O)[C@@H]1CC[C@@H]([C@@H](O)CC[C@H](O)[C@@H]2CC[C@@H](CCCCCCC[C@@H](O)CC3=C[C@H](C)OC3=O)O2)O1 | 1.84 | 5.18 | 10.2 | 2.8 | – | –
CCCCCCCCCC[C@@H](O)[C@@H]1CC[C@@H]([C@@H](O)CC[C@H](O)[C@@H]2CC[C@@H](CCCCCCC[C@H]3CC(CC(C)=O)C(=O)O3)O2)O1 (stereo not given in full) | 0.83 | 2.88 | 4.6 | 3.5 | – | –
CCCCCCCCCC[C@H](O)[C@H]1CC[C@@H]([C@@H]2CC[C@H]([C@H](O)CCCCCCCCCC[C@H]3CC(CC(C)=O)C(=O)O3)O2)O1 (stereo not given in full) | 0.33 | 1.21 | 1.8 | 3.7 | – | –
CCCCCCCCCC[C@H](O)[C@H]1CC[C@@H]([C@@H]2CC[C@H]([C@H](O)CCCCCCCCCC[C@H]3CC(CC(C)O)C(=O)O3)O2)O1 (stereo not given in full) | 0.18 | 0.21 | – | 1.2 | 1 | –
CCCCCCCCCC[C@@H](O)[C@@H]1CC[C@@H]([C@@H](O)CC[C@H](O)[C@@H]2CC[C@@H](CCCCCCC[C@@H](O)CC3(O)C(=O)O[C@H](C)[C@H]3O)O2)O1 (single isomer, unassigned) | 8.47 | 38.3 | 47.1 | 4.6 | – | –
CCCCCCCCCC[C@H](O)[C@H]1CC[C@@H]([C@@H]2CC[C@H]([C@H](O)CCCCCCCCCC[C@@H](O)CC3C[C@H](C)OC3=O)O2)O1 (stereo not given in full) | 0.43 | 0.57 | 2.4 | 1.3 | – | –
CCCCCCCCCC[C@H](O)[C@H]1CC[C@@H]([C@@H]2CC[C@H]([C@H](O)CCCCCCCCCC[C@@H](O)CC3=C[C@H](C)OC3=O)O2)O1 [rolliniastatin-1] | – | 0.74 | 3.3 | 1.2 | – | –
CCCCCCCCCC[C@@H](O)[C@@H]1CC[C@@H]([C@@H](O)CC[C@H](O)[C@@H]2CC[C@@H](CCCCCCC[C@H]3CC(CC(C)O)C(=O)O3)O2)O1 (stereo not given in full) | 2.48 | 4.64 | 13.8 | 1.9 | – | –
CCCCCCCCCC[C@@H](O)[C@@H]1CC[C@@H]([C@@H](O)CC[C@H](O)[C@@H]2CC[C@@H](CCCCCCC[C@@H](O)CC3C[C@H](C)OC3=O)O2)O1 (stereo not given in full) | 1.22 | 3.32 | 6.8 | 2.7 | – | –
CCCCCCCCCC[C@H](O)[C@H]1CC[C@@H]([C@@H]2CC[C@H]([C@H](O)CCCCCCCCCC[C@@H](O)CC3(O)C(=O)O[C@@H](C)[C@H]3O)O2)O1 (single isomer, unassigned) | 0.21 | 0.56 | 1.2 | 2.7 | – | –
CCCCCCCCCC[C@@H](O)[C@@H]1CC[C@@H]([C@@H](O)CC[C@H](O)[C@@H]2CC[C@@H](CCCCCCC[C@H]3CC(C/C(C)=N/O)C(=O)O3)O2)O1 (stereo not given in full) | 0.54 | 1.42 | 3 | 2.6 | – | –
CCCCCCCCCC[C@H](O)[C@H]1CC[C@H]([C@H]2CC[C@H]([C@H](O)CCCCCCCCCCCCC3C(=O)O[C@@H](C)[C@@H]3O)O2)O1 (stereo not given in full) [LAHERRADURIN] | 0.18 | 0.29 | – | 1.6 | – | 1
CCCCCCCCCC[C@H](O)[C@H]1CC[C@H]([C@H]2CC[C@H]([C@H](O)CCCCCCCCCCC3C(=O)O[C@@H](C)[C@@H]3O)O2)O1 (stereo not given in full) | 0.21 | 0.72 | 1.2 | 3.4 | – | –
CCCCCCCCCC[C@H](O)[C@H]1CC[C@@H]([C@@H]2CC[C@H]([C@H](O)CCCCCCCCCC[C@H]3CC(C/C(C)=N/O)C(=O)O3)O2)O1 (stereo not given in full) | 0.23 | 0.22 | 1.3 | 1 | – | –
